Reference: patent publication US12692254B2, “Benzimidazole inhibitors of PAD enzymes” (BRISTOL-MYERS SQUIBB COMPANY, priority 2018, dated 2026)

Target: human PAD4 (hPAD4) (Homo sapiens, UniProt Q9UM07)
Assay: RFMS human PAD4 functional assay (rapid-fire mass spectrum)
Assay type: biochemical
Conditions: 5 nM hPAD4 enzyme, 250 μM BAEE, 50 μM Calcium; 30 min preincubation, 90 min reaction at 37° C.
How it was run: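 PAD4 (10 nM) preincubated 30 min with compound (top final 50 μM), then BAEE substrate added in pH 7.5 HEPES buffer with DTT, 50 μM calcium, TPEN; 90 min at 37° C. After TCA quench, citrulline derivatized with phenyl glyoxal (4 mM final, 30 min, 37° C) and quantified by RapidFire MS against internal standard.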

Chain of human PAD4 (hPAD4) (Q9UM07 whole entry): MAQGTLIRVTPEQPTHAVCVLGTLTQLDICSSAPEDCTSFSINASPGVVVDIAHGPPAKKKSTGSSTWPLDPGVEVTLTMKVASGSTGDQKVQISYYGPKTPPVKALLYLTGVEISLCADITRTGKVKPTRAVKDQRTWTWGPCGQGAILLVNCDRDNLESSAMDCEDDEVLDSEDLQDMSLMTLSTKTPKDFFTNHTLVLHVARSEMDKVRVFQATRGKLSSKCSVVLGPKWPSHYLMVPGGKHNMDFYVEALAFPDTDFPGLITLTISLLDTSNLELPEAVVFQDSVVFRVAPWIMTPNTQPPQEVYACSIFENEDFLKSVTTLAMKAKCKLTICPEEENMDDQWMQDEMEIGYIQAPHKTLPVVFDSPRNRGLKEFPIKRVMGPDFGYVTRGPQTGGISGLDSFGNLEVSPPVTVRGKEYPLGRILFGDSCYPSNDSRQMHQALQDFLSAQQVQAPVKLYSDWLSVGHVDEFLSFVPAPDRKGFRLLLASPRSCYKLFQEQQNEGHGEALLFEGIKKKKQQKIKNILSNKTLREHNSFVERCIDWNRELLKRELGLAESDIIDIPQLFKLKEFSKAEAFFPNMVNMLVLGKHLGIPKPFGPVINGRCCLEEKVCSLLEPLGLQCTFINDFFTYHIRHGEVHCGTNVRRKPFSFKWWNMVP

| SMILES | IC50 |
| --- | --- |
| COc1cncc(-n2cc(Cn3c(-c4cc5cccnc5n4CC4CC4)nc4cc(C(=O)N5CC6CCC5[C@@H]6N)cc(OC)c43)cn2)c1 (stereo partly drawn) [Example 352, (7R)-2-{2-[1-(cyclopropylmethyl)-1H-pyrrolo[2,3-b]pyridin-2-yl]-7-methoxy-1-{[1-(5-methoxypyridin-3-yl)-1H-pyrazol-4-yl]methyl}-1H-1,3-benzodiazole-5-carbonyl}-2-azabicyclo[2.2.1]heptan-7-amine] | 19 nM |
| COc1cc(C(=O)N2CC3CCC2[C@@H]3N)cc2nc(-c3cc4cccnc4n3CC3CC3)n(Cc3cnn(-c4ccccc4)c3)c12 (stereo partly drawn) [Example 367, (7R)-2-{2-[1-(cyclopropylmethyl)-1H-pyrrolo[2,3-b]pyridin-2-yl]-7-methoxy-1-[(1-phenyl-1H-pyrazol-4-yl)methyl]-1H-1,3-benzodiazole-5-carbonyl}-2-azabicyclo[2.2.1]heptan-7-amine] | 29 nM |
| COc1cc(C(=O)N2C[C@H](N)C[C@@H](F)C2)cc2nc(-c3cc4ccccc4n3CC3CC3)n(CC3(C)CN(C(=O)c4ccccc4)C3)c12 [Example 460, (3R,5R)-1-{1-[(1-benzoyl-3-methylazetidin-3-yl)methyl]-2-[1-(cyclopropylmethyl)-1H-indol-2-yl]-7-methoxy-1H-1,3-benzodiazole-5-carbonyl}-5-fluoropiperidin-3-amine] | 67 nM |
| COc1cc(C(=O)N2CC3CCC2[C@@H]3N)cc2nc(-c3cc4ccccc4n3CC3CC3)n(Cc3cnn(-c4cncnc4)c3)c12 (stereo partly drawn) [Example 379, (7R)-2-{2-[1-(cyclopropylmethyl)-1H-indol-2-yl]-7-methoxy-1-{[1-(pyrimidin-5-yl)-1H-pyrazol-4-yl]methyl}-1H-1,3-benzodiazole-5-carbonyl}-2-azabicyclo[2.2.1]heptan-7-amine] | 37 nM |
| COc1cc(C(=O)N2C[C@H]3CC[C@@H]2[C@@H]3N)cc2nc(-c3cc4cccnc4n3CC3CC3)n(C[C@H]3CCN(c4ccnc(C#N)n4)C3)c12 [Example 204, 4-[(3S)-3-({5-[(1R,4R,7R)-7-amino-2-azabicyclo[2.2.1]heptane-2-carbonyl]-2-[1-(cyclopropylmethyl)-1H-pyrrolo[2,3-b]pyridin-2-yl]-7-methoxy-1H-1,3-benzodiazol-1-yl}methyl)pyrrolidin-1-yl]pyrimidine-2-carbonitrile] | 35 nM |
| COc1cc(C(=O)N2CC3CCC2[C@@H]3N)cc2nc(-c3cccn3C)n(CC3CN(c4ccnc(C#N)n4)C3)c12 (stereo partly drawn) [Example 318, 4-[3-({5-[(1R,4R,7R)-7-amino-2-azabicyclo[2.2.1]heptane-2-carbonyl]-7-methoxy-2-(1-methyl-1H-pyrrol-2-yl)-1H-1,3-benzodiazo1-1-yl)methyl)azetidin-1-yl]pyrimidine-2-carbonitrile] | 1300 nM |
| COc1cc(C(=O)N2CC3CCC2[C@@H]3N)cc2nc(-c3cc4cccnc4n3CC3CC3)n(CC3CCN(C(=O)c4ncccn4)CC3)c12 (stereo partly drawn) [Example 236, (1R,4R.,7R)-2-{2-[1-(cyclopropylmethyl)-1H-pyrrolo[2,3-b]pyridin-2-yl]-7-methoxy-1-{[1-(pyrimidine-2-carbonyl)piperidin-4-yl]methyl}-1H-1,3-benzodiazole-5-carbonyl}-2-azabicyclo[2.2.1]heptan-7-amine] | 402 nM |
| COc1cc(C(=O)N2CC3CCC2[C@@H]3N)cc2nc(-c3cc4cccnc4n3CC3CC3)n(Cc3cnn(-c4cncc(C#N)c4)c3)c12 (stereo partly drawn) [Example 346, 5-[4-({5-[(7R)-7-amino-2-azabicyclo[2.2.1]heptane-2-carbonyl]-2-[1-(cyclopropylmethyl)-1H-pyrrolo[2,3-b]pyridin-2-yl]-7-methoxy-1H-1,3-benzodiazol-1-yl}methyl)-1H-pyrazol-1-yl]pyridine-3-carbonitrile] | 61 nM |
| COc1cc(C(=O)N2C[C@H]3CC[C@@H]2[C@@H]3N)cc2nc(-c3cc4cccnc4n3CC3CC3)n(CC3CN(c4ccnc(C#N)n4)C3)c12 [Example 5, 4-[3-({5-[(1R,4R,7R)-7-amino-2-azabicyclo[2.2.1]heptane-2-carbonyl]-2-[1-(cyclopropylmethyl)-1H-pyrrolo[2,3-b]pyridin-2-yl]-7-methoxy-1H-1,3-benzodiazol-1-yl}methyl)azetidin-1-yl]pyrimidine-2-carbonitrile] | 51 nM |
| COc1cc(C(=O)N2CC3CCC2[C@@H]3N)cc2nc(-c3cc4ccccc4n3C)n(CC3CN(C(=O)c4ccc(C#N)cc4)C3)c12 (stereo partly drawn) [Example 178, 4-[3-({5-[(7R)-7-amino-2-azabicyclo[2.2.1]heptane-2-carbonyl]-7-methoxy-2-(1-methyl-1H-indol-2-yl)-1H-1,3-benzodiazol-1-yl}methyl)azetidine-1-carbonyl]benzonitrile] | 86 nM |
| COc1cc(C(=O)N2C[C@H](N)C[C@@H](F)C2)cc2nc(-c3cc4ccccc4n3CC3CC3)n(Cc3cnn(C)c3C)c12 [Example 506, (3R,5R)-1-{2-[1-(cyclopropylmethyl)-1H-indol-2-yl]-1-[(1,5-dimethyl-1H-pyrazol-4-yl)methyl]-7-methoxy-1H-1,3-benzodiazole-5-carbonyl}-5-fluoropiperidin-3-amine] | 225 nM |
| COc1cc(C(=O)N2C[C@H]3CC[C@@H]2[C@@H]3N)cc2nc(-c3cc4cccnc4n3CC3CC3)n(CC3CCNCC3)c12 [Example 305, (1R,4R,7R)-2-{2-[1-(cyclopropylmethyl)-1H-pyrrolo[2,3-b]pyridin-2-yl]-7-methoxy-1-[(piperidin-4-yl)methyl]-1H-1,3-benzodiazole-5-carbonyl)-2-azabicyclo[2.2.1]heptan-7-amine] | 303 nM |
| COc1cc(C(=O)N2C[C@H]3CC[C@@H]2[C@@H]3N)cc2nc(-c3cc4cccnc4n3CC3CC3)n(CC3CN(c4ccccc4C(C)=O)C3)c12 [Example 85, 1-{2-[3-({5-[(1R,4R,7R)-7-amino-2-azabicyclo[2.2.1]heptane-2-carbonyl]-2-[1-(cyclopropylmethyl)-1H-pyrrolo[2,3-b]pyridin-2-yl]-7-methoxy-1H-1,3-benzodiazol-1-yl}methyl)azetidin-1-yl]phenyl}ethan-1-one] | 638 nM |
| COc1cc(C(=O)N2C[C@H]3CC[C@@H]2[C@@H]3N)cc2nc(-c3cc4cccnc4n3CC3CC3)n(CC3CN(C(=O)c4ccnc(F)c4)C3)c12 [Example 122, (1R,4R,7R)-2-{2-[1-(cyclopropylmethyl)-1H-pyrrolo[2,3-b]pyridin-2-yl]-1-{[1-(2-fluoropyridine-4-carbonyl)azetidin-3-yl]methyl}-7-methoxy-1H-1,3-benzodiazole-5-carbonyl}-2-azabicyclo[2.2.1]heptan-7-amine] | 98 nM |
| COc1cc(C(=O)N2C[C@H]3CC[C@@H]2[C@@H]3N)cc2nc(-c3cc4cccnc4n3CC3CC3)n(CC3CN(C(=O)CNC(C)=O)C3)c12 [Example 186, N-{2-[3-({5-[(1R,4R,7R)-7-amino-2-azabicyclo[2.2.1]heptane-2-carbonyl]-2-[1-(cyclopropylmethyl)-1H-pyrrolo[2,3-b]pyridin-2-yl]-7-methoxy-1H-1,3-benzodiazol-1-yl}methyl)azetidin-1-yl]-2-oxoethyl}acetamide] | 316 nM |
| COc1cc(C(=O)N2C[C@H](N)C[C@@H](F)C2)cc2nc(-c3cc4cccnc4n3CC3CC3)n(Cc3cnn(-c4cncc(C#N)c4)c3)c12 [Example 391, 5-[4-({5-[(3R,5R)-3-amino-5-fluoropiperidine-1-carbonyl]-2-[1-(cyclopropylmethyl)-1H-pyrrolo[2,3-b]pyridin-2-yl]-7-methoxy-1H-1,3-benzodiazol-1-yl}methyl)-1H-pyrazol-1-yl]pyridine-3-carbonitrile] | 47 nM |
| COc1cc(C(=O)N2C[C@H](N)C[C@@H](F)C2)cc2nc(-c3cc4cccnc4n3CC3CC3)n(CC3(F)CN(C(=O)c4ccccc4)C3)c12 [Example 468, (3R,5R)-1-{1-[(1-benzoyl-3-fluoroazetidin-3-yl)methyl]-2-[1-(cyclopropylmethyl)-1H-pyrrolo[2,3-b]pyridin-2-yl]-7-methoxy-1H-1,3-benzodiazole-5-carbonyl}-5-fluoropiperidin-3-amine] | 99 nM |
| COc1cc(C(=O)N2C[C@H]3CC[C@@H]2[C@@H]3N)cc2nc(-c3cc4cccnc4n3CC3CC3)n(C[C@@H]3CCN(c4cncc(C#N)n4)C3)c12 [Example 207, 6-[(3R)-3-({5-[(1R,4R,7R)-7-amino-2-azabicyclo[2.2.1]heptane-2-carbonyl]-2-[1-(cyclopropylmethyl)-1H-pyrrolo[2,3-b]pyridin-2-yl]-7-methoxy-1H-1,3-benzodiazol-1-yl}methyl)pyrrolidin-1-yl]pyrazine-2-carbonitrile] | 57 nM |
| COc1cc(C(=O)N2C[C@H]3CC[C@@H]2[C@@H]3N)cc2nc(-c3cc4cccnc4n3CC3CC3)n(CC3CN(c4ccc(C#N)cc4)C3)c12 [Example 25, 4-[3-({5-[(1R,4R,7R)-7-amino-2-azabicyclo[2.2.1]heptane-2-carbonyl]-2-[1-(cyclopropylmethyl)-1H-pyrrolo[2,3-b]pyridin-2-yl]-7-methoxy-1H-1,3-benzodiazol-1-yl}methyl)azetidin-1-yl]benzonitrile] | 72 nM |
| COc1cc(C(=O)N2C[C@H]3CC[C@@H]2[C@@H]3N)cc2nc(-c3cc4ccccc4n3CC3CC3)n(Cc3ccncc3)c12 [Example 272, (1R,4R,7R)-2-(2-[1-(cyclopropylmethyl)-1H-indol-2-yl]-7-methoxy-1-[(pyridin-4-yl)methyl]-1H-1,3-benzodiazole-5-carbonyl}-2-azabicyclo[2.2.1]heptan-7-amine] | 179 nM |
| COc1cc(C(=O)N2CC3CCC2[C@@H]3N)cc2nc(-c3cc4ccccc4n3CC3CC3)n(Cc3cnn(-c4ccc[n+]([O-])c4)c3)c12 (stereo partly drawn) [Example 396, 3-[4-({5-[(7R)-7-amino-2-azabicyclo[2.2.1]heptane-2-carbonyl]-2-[1-(cyclopropylmethyl)-1H-indol-2-yl]-7-methoxy-1H-1,3-benzodiazol-1-yl}methyl)-1H-pyrazol-1-yl]pyridin-1-ium-1-olate] | 51 nM |
